In ChEMBL document CHEMBL1132855, “Modeling directed design and biological evaluation of quinazolinones as non-peptidic growth hormone secretagogues” (Bioorg Med Chem Lett, 2000):

Biological target: Growth hormone secretagogue receptor type 1 (Homo sapiens, UniProt Q92847)
Test: Binding affinity for human growth hormone GH secretagogue (hGHsr) receptor
Settings: not given

Growth hormone secretagogue receptor type 1, sequence (Q92847 whole entry): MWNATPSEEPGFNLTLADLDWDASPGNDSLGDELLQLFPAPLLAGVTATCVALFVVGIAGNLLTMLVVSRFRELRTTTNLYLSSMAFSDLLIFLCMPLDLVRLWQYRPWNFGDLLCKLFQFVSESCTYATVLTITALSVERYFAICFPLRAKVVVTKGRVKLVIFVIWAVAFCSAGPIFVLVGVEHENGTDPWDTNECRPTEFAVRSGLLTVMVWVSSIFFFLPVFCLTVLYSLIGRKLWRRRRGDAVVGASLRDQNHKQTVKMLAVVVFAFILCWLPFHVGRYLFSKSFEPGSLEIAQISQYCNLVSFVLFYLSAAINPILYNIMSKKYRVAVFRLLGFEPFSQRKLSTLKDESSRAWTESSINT

In order of falling IC50:
1. COC(=O)C(CCCCN)NC(=O)Cn1c(-c2ccc3ccccc3c2)nc2ccc(Cl)cc2c1=O (stereo unspecified)  3500 nM
2. CN1N=C2CCN(C(=O)[C@@H](COCc3ccccc3)NC(=O)C(C)(C)N)C[C@@]2(Cc2ccccc2)C1=O [CAPROMORELIN]  3000 nM
3. NCCCCCNC(=O)Cn1c(-c2ccc3ccccc3c2)nc2ccc(Br)cc2c1=O  1400 nM
4. NCCCCCCNC(=O)Cn1c(-c2ccc3ccccc3c2)nc2ccc(Br)cc2c1=O  960 nM
5. NCCCCCNC(=O)Cn1c(-c2ccc3ccccc3c2)nc2ccc(-c3ccccc3)cc2c1=O  340 nM
6. NCCCCCNC(=O)Cn1c(CCc2ccccc2)nc2ccc(Br)cc2c1=O  340 nM
7. NCCCCCCNC(=O)Cn1c(-c2ccc3ccccc3c2)nc2ccc(-c3ccccc3)cc2c1=O  200 nM
8. NCCCCCCNC(=O)Cn1c(CCc2ccccc2)nc2ccc(Br)cc2c1=O  67 nM
9. NCCCCCNC(=O)Cn1c(CCc2ccccc2)nc2ccc(-c3ccccc3)cc2c1=O  48 nM
10. NCCCCCCNC(=O)Cn1c(CCc2ccccc2)nc2ccc(-c3ccccc3)cc2c1=O  16 nM

Species on record: Rattus norvegicus
Test: The effective concentration against rat pituitary cell GH release assay
Format: functional
Settings: Pituitary gland cell

Compound `NCCCCCCNC(=O)Cn1c(CCc2ccccc2)nc2ccc(-c3ccccc3)cc2c1=O` has an IC50 of 630 nM.
